“Also recorded” adds a separate entry of the source.
Columns and labels:
[1] = test system: endodermal cells induced from human iPS cells; type: cell-based; settings: added simultaneously with dorsomorphin (1 μM) and retinoic acid (2 μM) day 3 to day 10; SB431542 5 μM, ALK5 inhibitor II 2 μM, A-83-01 0.2 μM, TGFβRI kinase inhibitor VIII 0.2 μM; vs dorsomorphin and retinoic acid alone
Description: The dorsomorphin is an inhibitor of AMP-activated protein kinase (AMPK), and an inhibitor of ALK2, ALK3 and ALK6 from among activin receptor-like kinases (ALK). In addition, SB431542 is an inhibitor of ALK4, ALK5 and ALK7 from among ALKs.
As a control, the medium was changed to one added with dorsomorphin and retinoic acid alone (Ctrl). […] After the culture, the expression level of NGN3, which is progenitor cells of pancreatic hormone-producing cells marker, was measured in the same manner as in Example 1.

[2] = test system: progenitor cells of pancreatic hormone-producing cells induced from human iPS cells; assay: quantitative RT-PCR of insulin and PDX1 after step (4); type: cell-based; settings: added in step (4) from day 10; forskolin 10 μM, nicotinamide 10 mM, dexamethasone 10 μM, ALK5 inhibitor II 5 μM; measured on day 12, 16 and 20; vs control without inducing factors
Description: The expression level of PDX1, which is pancreatic progenitor cells marker, and insulin, which is pancreatic β cells (insulin-producing cells) marker, was measured in the same manner as in Example 1.
The medium was changed once on day 7 of induction. […] The medium was changed every 3-4 days. After culture, the expression level of insulin was measured in the same manner as in Experimental Example 1.
The medium was changed once on day 7 of induction. […] The medium was changed every 5 days.
After culture under each condition, the expression levels of insulin in the cells on day 12 of differentiation induction, on day 16 of differentiation induction and day 20 of differentiation induction were measured in the same manner as in Example 1.

[3] = test system: progenitor cells of pancreatic hormone-producing cells induced from human iPS cells; assay: immunofluorescent staining with anti-insulin antibody after step (4); type: cell-based; settings: each added alone in step (4), day 10 to day 21; forskolin 10 μM, dibutyl cAMP 500 μM, IBMX 200 μM, ALK5 inhibitor II 5 μM, A-83-01 0.5 μM, SB431542 10 μM, TGFβRI kinase inhibitor VIII 2 μM, dexamethasone 10 μM, hydrocortisone 5 μM, betamethasone 2 μM, beclomethasone 1 μM
[4] = test system: endodermal cells induced from human iPS cells; assay: immunofluorescent staining with anti-PDX1 antibody after step (3); settings: added simultaneously with retinoic acid (2 μM) for 7 days, day 3 to day 10; Noggin 100 ng/ml, dorsomorphin 1 μM
[5] = test system: human iPS cells (253G1 strain); assay: quantitative RT-PCR of BRACHYURY and SOX17 during induction of human iPS cells into endodermal cells, steps (1)-(2); type: cell-based; settings: added with activin A (100 ng/ml) only the first day, CHIR99021 3 μM, Wnt3a 25 ng/ml, relative to GAPDH
Text: As a first stage for induction of differentiation of human iPS cells (iPS cells obtained by introducing Oct3/4 gene, Klf4 gene and Sox2 gene: see Nat Biotechnol 2008; 26: 101-106) into pancreas cells (particularly pancreatic hormone-producing cells), differentiation of human iPS cells was induced into endodermal cells by using a 96 well plate.
As the human iPS cells, 253G1 strain (iPS cell line produced by expressing OCT4/SOX2/KLF4 with retrovirus; Nature Biotechnology 26, 101-106) was used. Maintenance culture of the iPS cells in an undifferentiated state was performed using mitomycin-treated mouse fibroblast (MEFs) seeded on a gelatin-coated plate as feeder cells, and a medium for primate ES cells (ReproCELL Incorporated) added with 4 ng/ml bFGF (PeproTech EC) and 0.5× Penicillin-streptomycin (SIGMA) as a medium at 37° C. under 5% CO2. The medium was changed every day, the cell mass was detached every 4-5 days using a cell detachment solution for primate ES cell (ReproCELL Incorporated), and passaged by seeding on new feeder cells.
As a preculture for differentiation induction into endodermal cells, undifferentiated iPS cells were seeded in a 96 well plate. First, iPS cells maintained in a cell mass was treated with 0.25% trypsin-1 mM EDTA solution (GIBCO) and dissociated until they became single cells. Then, iPS cells dispersed in a medium were seeded in a 96 well plate at a density of 2×10^4 cells per well and cultured at 37° C. under 5% CO2 for 1 day. The 96 well plate used had been gelatin-coated, seeded with 5×10^3 MEFs and cultured at 37° C. under 5% CO2 for 5 hr. In addition, as a culture medium for seeding, a medium for primate ES cells added with 10 μM Y-27632 (Wako Pure Chemical Industries, Ltd.) was used. One day after seeding, the medium was changed to a medium for primate ES cells without Y-27632, and the cells were further cultured for 2 days until they became confluent.
Differentiation of iPS cells into endodermal cells was induced according to the following method. First, the confluent cells were washed with RPMI medium (GIBCO), RPMI medium containing various differentiation-inducing factors and 2% fetal bovine serum (FBS) was added, and the mixture was cultured for 1 day. […]
To examine variation in the expression of endoderm differentiation marker when cultured under each condition, differentiation-induced cells were recovered over time, and the total RNA fractions were purified using RNeasy96 (Qiagen). Using a PrimeScript RT reagent kit (Takara Bio Inc.), cDNA was synthesized, and quantitative RT-PCR was performed, whereby the gene expression level of BRACHYURY, which is a primitive streak marker, and SOX17, which is an endodermal marker, was measured.

[6] = test system: human iPS cells (253G1 strain); assay: immunofluorescent staining with anti-SOX17 antibody on day 3 of differentiation induction; type: cell-based; settings: added with activin A (100 ng/ml) for 1 day, then activin A alone 2 days, CHIR99021 3 μM, Wnt3a 25 ng/ml, SB415286 3 μM, SB216763 20 μM
Description: To examine expression of SOX17 protein after culture for 3 days, immunofluorescent staining using an anti-SOX17 antibody was performed. After culture up to day 3 in the same manner as in FIG. 1, the cells were fixed with 2% para-formaldehyde (PFA) for 10 min and further for 20 min with 4% PFA at room temperature.
Whether even use of a GSK3 inhibitor other than CHIR99021 in step (1) enables differentiation induction into endodermal cells was examined. The differentiation of human iPS cells into endodermal cells was induced according to the following method. […] Thereafter, the cells were washed with RPMI medium (GIBCO), and cultured for 1 day in RPMI medium containing various GSK3 inhibitors, activin A (100 ng/ml) and 2% fetal bovine serum (FBS). […] As a control, the cells were treated with a medium added only with activin A and free of GSK3 inhibitor. After culture for 1 day, the cells were washed with RPMI medium, and further cultured for 2 days in RPMI medium added with 2% FBS and 100 ng/ml activin A.
To examine expression of SOX17 protein on day 3 of differentiation induction, immunofluorescent staining using an anti-SOX17 antibody was performed. 4% PFA was added to the cells on day 3 of culture under each condition, the mixture was incubated at room temperature for 30 min to fix the cells.

Molecule: Cc1cccc(-c2n[nH]cc2-c2ccc3ncccc3n2)n1 [ALK5 inhibitor II, 2-[3-[6-methylpyridin-2-yl]-1H-pyrazol-4-yl]-1,5-naphthyridine]
- expression level of NGN3 [1]: increased remarkably
- expression level of insulin [2]: increased markedly; also recorded: high value
- positive rate of insulin-expressing cells [3]: remarkably increased; also recorded: induced differentiation into insulin-positive cells with high efficiency

Molecule: c1cc(-c2cnn3cc(-c4ccc(OCCN5CCCCC5)cc4)cnc23)ccn1 [dorsomorphin, 6-[4-(2-piperidin-1-ylethoxy)phenyl]-3-pyridin-4-ylpyrazolo[1,5-a]pyrimidine]
- differentiation into PDX1-positive cells [4]: remarkably induced; also recorded: many cells were induced into PDX1-positive cells

B1: Wnt3a: differentiation-inducing factor generally used for endoderm induction along with activin A (protein, UniProt P56704 19-352, looked up)
Protein Wnt-3a: SYPIWWSLAVGPQYSSLGSQPILCASIPGLVPKQLRFCRNYVEIMPSVAEGIKIGIQECQHQFRGRRWNCTTVHDSLAIFGPVLDKATRESAFVHAIASAGVAFAVTRSCAEGTAAICGCSSRHQGSPGKGWKWGGCSEDIEFGGMVSREFADARENRPDARSAMNRHNNEAGRQAIASHMHLKCKCHGLSGSCEVKTCWWSQPDFRAIGDFLKDKYDSASEMVVEKHRESRGWVETLRPRYTYFKVPTERDLVYYEASPNFCEPNPETGSFGTRDRTCNVSSHGIDGCDLLCCGRGHNARAERRREKCRCVFHWCCYVSCQECTRVYDVHTCK
- expression level of SOX17 (endodermal marker) ([5]; then activin A alone 2 days, days 2-3): also lower than with a treatment with CHIR99021; also recorded: high value
- expression level of BRACHYURY (primitive streak marker) ([5]; day 1 of differentiation induction): lower than with a treatment with CHIR99021
- ratio of cells expressing SOX17 protein [6]: a part of the cells also expressed SOX17 protein; also recorded: remarkably detected

B2: Noggin: BMP antagonist (protein, UniProt Q13253 28-232, looked up)
Noggin: QHYLHIRPAPSDNLPLVDLIEHPDPIFDPKEKDLNETLLRSLLGGHYDPGFMATSPPEDRPGGGGGAAGGAEDLAELDQLLRQRPSGAMPSEIKGLEFSEGLAQGKKQRLSKKLRRKLQMWLWSQTFCPVLYAWNDLGSRFWPRYVKVGSCFSKRSCSVPEGMVCKPSKSVHLTVLRWRCQRRGGQRCGWIPIQYPIISECKCSC
- differentiation into PDX1-positive cells [4]: remarkably induced; also recorded: many cells were induced into PDX1-positive cells

From patent US8932853B2, “Method for manufacturing pancreatic-hormone-producing cells” (Takeda Pharmaceutical Company Limited, priority 2009, dated 2015)
